Results reported in ChEMBL document CHEMBL2390840, “An analysis of the synthetic tryptamines AMT and 5-MeO-DALT: emerging 'Novel Psychoactive Drugs'” (Bioorg Med Chem Lett, 2013).

Tests used:
D(2) dopamine receptor = D(2) dopamine receptor (Homo sapiens, UniProt P14416); assay: Displacement of [3H]N-methylspiperone from human recombinant dopamine D2 receptor expressed in HEK293 cells after 1 to […] by scintillation counting analysis; format: cell-based
[1] = target: T1, Sodium-dependent noradrenaline transporter (Homo sapiens, UniProt P23975); assay: Displacement of [3H]Nisoxetine from human recombinant norepinephrine transporter expressed in HEK293 cells after 1 to […] by scintillation counting analysis; format: cell-based
D(3) dopamine receptor = D(3) dopamine receptor (Homo sapiens, UniProt P35462); assay: Displacement of [3H]N-methylspiperone from human recombinant dopamine D3 receptor expressed in HEK293 cells after 1 to […] by scintillation counting analysis; format: cell-based
[2] = target: Alpha-1B adrenergic receptor (Homo sapiens, UniProt P35368); assay: Displacement of [3H]Prazosin from human recombinant adrenergic alpha1B receptor expressed in HEK293 cells after 1 to […] by scintillation counting analysis; format: cell-based
[3] = target: Alpha-2B adrenergic receptor (Homo sapiens, UniProt P18089); assay: Displacement of [3H]Clonidine from human recombinant adrenergic alpha2B receptor expressed in HEK293T cells after 1 to […] by scintillation counting analysis; format: cell-based, HEK-293T
[4] = target: Alpha-1A adrenergic receptor (Homo sapiens, UniProt P35348); assay: Displacement of [3H]Prazosin from human recombinant adrenergic alpha1A receptor expressed in HEK293 cells after 1 to […] by scintillation counting analysis; format: cell-based
[5] = target: 5-hydroxytryptamine receptor 1B (Homo sapiens, UniProt P28222); assay: Displacement of [3H][…] from human recombinant 5-HT1B receptor expressed in HEK293 cells after 1 to […] by scintillation counting analysis; format: cell-based
[6] = target: T1, Sodium-dependent noradrenaline transporter; assay: Inhibition of [3H]norepinephrine uptake at human NET expressed in HEK293 cells preincubated for 10 mins prior to substrate addition measured after 4 mins by […]; format: cell-based
[7] = target: Alpha-2C adrenergic receptor (Homo sapiens, UniProt P18825); assay: Displacement of [3H]Clonidine from human recombinant adrenergic alpha2C receptor expressed in MDCK cells after 1 to […] by scintillation counting analysis; format: cell-based
[8] = Displacement of [3H]DTG from sigma 2 receptor in rat PC12 cells after 1 to […] by scintillation counting analysis; format: cell-based; settings: pc-12
[9] = target: T2, 5-hydroxytryptamine receptor 2A (Homo sapiens, UniProt P28223); assay: Agonist activity at human 5-HT2A receptor expressed in HEK293 cells assessed as increase in calcium mobilization by FLIPR assay; format: functional, cell-based
[10] = target: T2, 5-hydroxytryptamine receptor 2A; assay: Displacement of [3H]Ketanserin from human recombinant 5-HT2A receptor expressed in HEK293T cells after 1 to […] by scintillation counting analysis; format: cell-based, HEK-293T

T2 sequence (P28223 whole entry): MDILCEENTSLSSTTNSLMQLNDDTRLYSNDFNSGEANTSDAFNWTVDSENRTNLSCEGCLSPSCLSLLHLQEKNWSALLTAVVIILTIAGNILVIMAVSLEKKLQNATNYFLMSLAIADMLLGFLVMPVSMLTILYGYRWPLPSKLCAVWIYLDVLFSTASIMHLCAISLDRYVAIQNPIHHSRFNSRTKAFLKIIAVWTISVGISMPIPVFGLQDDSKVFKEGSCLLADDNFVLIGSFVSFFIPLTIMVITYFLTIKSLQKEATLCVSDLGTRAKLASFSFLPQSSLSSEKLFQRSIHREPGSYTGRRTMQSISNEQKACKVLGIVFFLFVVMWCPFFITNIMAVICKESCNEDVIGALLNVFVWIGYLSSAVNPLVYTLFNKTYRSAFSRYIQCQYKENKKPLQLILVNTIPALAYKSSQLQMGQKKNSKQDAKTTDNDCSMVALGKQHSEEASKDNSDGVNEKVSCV
T1 sequence (P23975 whole entry): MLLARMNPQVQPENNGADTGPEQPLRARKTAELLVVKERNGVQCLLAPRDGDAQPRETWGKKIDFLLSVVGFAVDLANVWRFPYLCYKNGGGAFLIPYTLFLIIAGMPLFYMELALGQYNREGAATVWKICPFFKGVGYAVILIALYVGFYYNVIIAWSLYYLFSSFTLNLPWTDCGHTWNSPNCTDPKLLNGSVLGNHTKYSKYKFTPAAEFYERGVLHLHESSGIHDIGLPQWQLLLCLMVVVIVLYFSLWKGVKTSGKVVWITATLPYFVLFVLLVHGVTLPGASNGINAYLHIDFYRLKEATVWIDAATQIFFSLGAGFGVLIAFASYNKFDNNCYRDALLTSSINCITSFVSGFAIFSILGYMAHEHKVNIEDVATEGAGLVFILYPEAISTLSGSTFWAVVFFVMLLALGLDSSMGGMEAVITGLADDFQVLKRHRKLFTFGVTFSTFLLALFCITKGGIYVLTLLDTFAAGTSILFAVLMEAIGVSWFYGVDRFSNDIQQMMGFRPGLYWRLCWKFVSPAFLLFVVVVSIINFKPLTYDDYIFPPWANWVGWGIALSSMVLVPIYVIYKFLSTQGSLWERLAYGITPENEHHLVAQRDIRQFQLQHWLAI
Sequence of D(3) dopamine receptor (P35462 whole entry): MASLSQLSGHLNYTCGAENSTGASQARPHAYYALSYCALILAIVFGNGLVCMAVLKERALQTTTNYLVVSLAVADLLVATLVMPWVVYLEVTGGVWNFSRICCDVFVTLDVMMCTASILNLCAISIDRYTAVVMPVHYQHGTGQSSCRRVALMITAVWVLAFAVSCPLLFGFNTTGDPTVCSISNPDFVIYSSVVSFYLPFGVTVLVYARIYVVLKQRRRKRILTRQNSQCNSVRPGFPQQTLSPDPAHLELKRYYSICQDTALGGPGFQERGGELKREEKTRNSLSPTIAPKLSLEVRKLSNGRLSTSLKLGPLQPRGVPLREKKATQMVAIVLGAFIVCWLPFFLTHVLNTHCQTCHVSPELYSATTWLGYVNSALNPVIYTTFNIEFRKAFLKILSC
Sequence of Alpha-2C adrenergic receptor (P18825 whole entry): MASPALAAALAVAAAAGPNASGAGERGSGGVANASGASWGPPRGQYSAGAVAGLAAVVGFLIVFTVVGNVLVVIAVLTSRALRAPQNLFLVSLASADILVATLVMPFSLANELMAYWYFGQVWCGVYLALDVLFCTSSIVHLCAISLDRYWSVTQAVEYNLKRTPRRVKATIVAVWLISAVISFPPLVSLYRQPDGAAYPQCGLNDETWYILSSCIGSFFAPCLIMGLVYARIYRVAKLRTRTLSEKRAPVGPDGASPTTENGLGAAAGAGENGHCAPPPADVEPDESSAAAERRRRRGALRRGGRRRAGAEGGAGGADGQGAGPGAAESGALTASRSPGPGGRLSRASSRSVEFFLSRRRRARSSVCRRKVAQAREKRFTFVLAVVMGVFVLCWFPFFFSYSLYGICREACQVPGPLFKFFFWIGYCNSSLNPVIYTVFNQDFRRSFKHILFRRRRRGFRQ
Sequence of Alpha-2B adrenergic receptor (P18089 whole entry): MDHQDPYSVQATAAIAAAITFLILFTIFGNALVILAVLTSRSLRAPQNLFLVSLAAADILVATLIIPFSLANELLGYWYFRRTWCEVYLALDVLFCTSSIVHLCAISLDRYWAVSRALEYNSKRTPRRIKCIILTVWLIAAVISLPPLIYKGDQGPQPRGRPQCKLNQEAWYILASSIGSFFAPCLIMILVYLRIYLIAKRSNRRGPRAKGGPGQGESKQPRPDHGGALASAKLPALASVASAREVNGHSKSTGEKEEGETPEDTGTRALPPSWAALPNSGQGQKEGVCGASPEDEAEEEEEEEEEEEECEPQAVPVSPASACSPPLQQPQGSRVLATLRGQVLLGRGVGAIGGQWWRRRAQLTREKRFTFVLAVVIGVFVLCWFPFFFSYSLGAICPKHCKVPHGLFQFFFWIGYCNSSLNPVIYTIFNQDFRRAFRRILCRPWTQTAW
Sequence of Alpha-1B adrenergic receptor (P35368 whole entry): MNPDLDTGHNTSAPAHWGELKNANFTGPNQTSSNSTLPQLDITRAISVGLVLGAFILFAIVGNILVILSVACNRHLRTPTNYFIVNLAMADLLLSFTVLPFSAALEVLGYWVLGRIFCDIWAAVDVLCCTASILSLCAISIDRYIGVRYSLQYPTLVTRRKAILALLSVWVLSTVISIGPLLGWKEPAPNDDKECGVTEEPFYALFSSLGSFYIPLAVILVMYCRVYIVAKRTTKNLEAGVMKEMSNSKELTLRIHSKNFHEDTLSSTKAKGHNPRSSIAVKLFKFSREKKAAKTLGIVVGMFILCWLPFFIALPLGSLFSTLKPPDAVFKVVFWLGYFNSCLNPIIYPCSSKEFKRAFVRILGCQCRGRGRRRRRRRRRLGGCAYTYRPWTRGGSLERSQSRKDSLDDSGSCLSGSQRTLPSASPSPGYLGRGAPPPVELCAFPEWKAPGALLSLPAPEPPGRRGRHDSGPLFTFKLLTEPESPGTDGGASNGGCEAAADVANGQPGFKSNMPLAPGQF
Sequence of Alpha-1A adrenergic receptor (P35348 whole entry): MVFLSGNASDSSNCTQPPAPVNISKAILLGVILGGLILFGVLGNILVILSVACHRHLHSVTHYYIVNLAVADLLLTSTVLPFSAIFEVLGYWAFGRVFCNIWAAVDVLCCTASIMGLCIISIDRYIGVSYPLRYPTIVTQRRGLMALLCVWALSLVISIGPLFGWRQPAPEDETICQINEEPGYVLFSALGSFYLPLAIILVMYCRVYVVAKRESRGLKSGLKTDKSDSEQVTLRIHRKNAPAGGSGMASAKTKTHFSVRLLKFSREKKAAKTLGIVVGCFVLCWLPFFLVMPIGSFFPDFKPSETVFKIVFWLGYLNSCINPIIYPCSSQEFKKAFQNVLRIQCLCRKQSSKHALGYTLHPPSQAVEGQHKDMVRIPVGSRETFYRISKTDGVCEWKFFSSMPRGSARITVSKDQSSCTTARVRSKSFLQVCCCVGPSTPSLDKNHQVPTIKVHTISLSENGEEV
Sequence of D(2) dopamine receptor (P14416 whole entry): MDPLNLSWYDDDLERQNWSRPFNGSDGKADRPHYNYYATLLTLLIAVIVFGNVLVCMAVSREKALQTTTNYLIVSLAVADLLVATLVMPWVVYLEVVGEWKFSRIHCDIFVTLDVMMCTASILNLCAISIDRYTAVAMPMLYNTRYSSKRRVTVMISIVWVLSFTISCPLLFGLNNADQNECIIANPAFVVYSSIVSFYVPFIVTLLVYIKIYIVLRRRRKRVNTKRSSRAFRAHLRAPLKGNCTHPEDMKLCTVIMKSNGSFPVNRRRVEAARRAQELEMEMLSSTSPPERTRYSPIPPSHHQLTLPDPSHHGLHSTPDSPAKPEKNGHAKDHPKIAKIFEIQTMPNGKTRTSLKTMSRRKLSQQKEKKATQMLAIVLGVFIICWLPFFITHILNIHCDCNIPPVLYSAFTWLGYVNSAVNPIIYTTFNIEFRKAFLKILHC
Sequence of 5-hydroxytryptamine receptor 1B (P28222 whole entry): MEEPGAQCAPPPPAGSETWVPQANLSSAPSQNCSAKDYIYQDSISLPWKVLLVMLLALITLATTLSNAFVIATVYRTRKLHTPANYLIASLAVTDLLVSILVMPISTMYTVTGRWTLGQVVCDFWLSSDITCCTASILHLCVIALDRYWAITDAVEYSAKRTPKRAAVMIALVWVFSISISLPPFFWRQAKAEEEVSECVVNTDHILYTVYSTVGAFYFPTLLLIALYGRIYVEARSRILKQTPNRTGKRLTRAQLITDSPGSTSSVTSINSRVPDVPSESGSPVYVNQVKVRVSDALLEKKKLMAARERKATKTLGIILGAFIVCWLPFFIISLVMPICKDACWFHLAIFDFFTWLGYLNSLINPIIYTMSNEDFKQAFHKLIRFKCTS

CC(N)Cc1c[nH]c2ccccc12 (centres undefined)
Ki (D(2) dopamine receptor): > 10000 nM
Ki [1]: > 10000 nM
Ki (D(3) dopamine receptor): > 10000 nM
Ki [2]: > 10000 nM
Ki [3]: > 10000 nM
Ki [4]: > 10000 nM
Ki [5]: 559 nM
IC50 [6]: 3720 nM
Ki [6]: 642 nM
Ki [7]: > 10000 nM
pKi [8]: < 5

C=CCN(CC=C)CCc1c[nH]c2ccc(OC)cc12
EC50 ([9]; read-out: EC50): 2.8 nM
EC50 ([9]; read-out: pEC50 (converted)): 27.5 nM
Ki [10]: 555 nM
